Reference: patent US5514713A, “Amidinophenol derivatives” (Ono Pharmaceutical Co., Ltd., priority 1993, dated 1996)
Where a name gives a salt, the structure may show the parent alone.

Columns and labels:
PLA2 [1] = conditions: Japanese Journal of Clinical Medicine, 48 (1), 165-172, 1990; cited from earlier work
PLA2 [2] = target: T1, PLA2 (Sus scrofa, UniProt P00592); assay: Inhibitory activity on PLA2; assay type: biochemical, hog
T1 construct: from tissue; host or cells: hog pancreas
Experimental: A reaction solution including 50 mM tris-HCl buffer (pH7.5, 874 μl; containing 100 mM sodium chloride, 1 mM EDTA), 1M calcium chloride (6 μl), 1% bovine serum albumin (10 μl) and 2.5 mM 10PY-PC (10 μl), was prepared. To the solution were added solutions of a test compound in respective concentrations or water (50 μl), and a solution of 10 mU/ml PLA2 (derived from hog pancreas) (50 μl). The appearance of fluorescence was measured (Ex=345 nm, Em=396 nm). Percentage of the strength of fluorescence in the presence of a test compound was calculated when the strength of that in the absence thereof was regarded as 100%, and therefrom IC50 value was calculated.
(§1) In the methods hereinbefore described, 10PY-PC represents 3'-palmitoyl-2-(1-opyrenedecanoyl)-L-α-phosphatidylcholine, HEPES represents 4-(2-hydroxyethyl)-1-piperazineethanesulfonic acid, and BAPNA represents α-N-benzoyl-DL-arginine-p-nitroanilide hydrochloride.

trypsin = target: T2, trypsin (Bos taurus, UniProt P00760); assay: Inhibitory activity on trypsin; assay type: biochemical; conditions: trypsin derived from bovine pancreas; BAPNA substrate; pH 8.0; 30° C.; absorbance at 405 nm
T2 construct: from tissue; host or cells: bovine pancreas
T2 sequence (P00760 24-246): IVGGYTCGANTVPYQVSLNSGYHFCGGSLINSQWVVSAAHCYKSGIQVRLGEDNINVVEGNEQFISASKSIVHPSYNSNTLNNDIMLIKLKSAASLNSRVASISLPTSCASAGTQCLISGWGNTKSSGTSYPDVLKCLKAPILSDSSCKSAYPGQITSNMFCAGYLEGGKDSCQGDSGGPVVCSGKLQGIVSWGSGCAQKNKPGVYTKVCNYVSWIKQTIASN
Experimental: (2) Inhibitory activity on trypsin
To a mixture of a 0.2 M HEPES·sodium hydroxide buffer solution (pH 8.0, 100 μl) and distilled water (640 μl), were added solutions of a test compound in respective concentrations or water (10 μl), and a solution of 80 mU/ml trypsin (derived from bovine pancreas) (50 μl) and then the mixture was preincubated for one minute at 30° C. To the solution thus obtained was added 2.5 mM BAPNA (200 μl) and the mixture was incubated at 30° C. The absorbance at 405 nm was measured. Percentage (%) of the absorbance in the presence of a test compound was calculated when the absorbance in the absence thereof was regarded as 100%, and therefrom IC50 value was calculated.
as §1

T1 sequence (P00592 23-146): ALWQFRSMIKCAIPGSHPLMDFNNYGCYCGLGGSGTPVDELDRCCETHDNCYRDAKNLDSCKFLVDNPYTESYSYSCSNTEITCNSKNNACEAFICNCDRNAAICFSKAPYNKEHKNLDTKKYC

For `CN(C)C(=O)COC(=O)Cc1ccc(OC(=O)c2ccc(NC(=N)N)cc2)cc1` [camostat mesylate], the “inhibitory activity on PLA2 (in words)” value (PLA2 [1]) is listed as “inhibitory activity on PLA2”.
`CCOC(=O)CN(CCCOC)C(=O)/C(C)=C/c1ccc(C(=O)Oc2ccc(C(=N)N)cc2)cc1` [Example 1(a), acetate] showed an IC50 (PLA2 [2]) of 106000 nM and an IC50 (trypsin) of 253 nM.
`CCOC(=O)CCN(CCCOC)C(=O)/C(C)=C/c1ccc(C(=O)Oc2ccc(C(=N)N)cc2)cc1` [Example 1, p-(p-Amidinophenoxycarbonyl)-α-methylcinnamic acid N-2-ethoxycarbonylethyl-N-3-methoxypropylamide hydrochloride] showed an IC50 (PLA2 [2]) of 107000 nM and an IC50 (trypsin) of 136 nM.
In the case of `N=C(N)Nc1ccc(C(=O)Oc2ccc3cc(C(=N)N)ccc3c2)cc1` [nafamostat mesylate], the “inhibitory activity on PLA2 (in words)” value (PLA2 [1]) is given as “inhibitory activity on PLA2”.
In the case of `CCOC(=O)C(C(=O)OCC)N(CCCOC)C(=O)/C(C)=C/c1ccc(C(=O)Oc2ccc(C(=N)N)cc2)cc1` [1(b), p-(p-Amidinophenoxycarbonyl)-α-methylcinnamic acid N-1,1-bis(ethoxycarbonyl)methyl-N-3-methoxypropylamide acetate], the IC50 (PLA2 [2]) is reported as 124000 nM and the IC50 (trypsin) is reported as 170 nM.
With `COCCCN(CC(=O)O)C(=O)/C(C)=C/c1ccc(C(=O)Oc2ccc(C(=N)N)cc2)cc1` [Example 3, p-(p-Amidinophenoxycarbonyl)-α-methylcinnamic acid N-carboxylmethyl-N-3-methoxypropylamide methanesulfonate] the IC50 (trypsin) was 140 nM.
